Results taken from patent US20130053310A1 (NOVO NORDISK A/S, priority 2010, published 2013).

How the values were obtained:
[1] = biological target: T1, glucagon receptor (Homo sapiens, UniProt P47871); assay: Assay (I) Glucagon activity: cAMP biosensor (ACTOne) FLIPR assay in HEK-293 cells with cloned glucagon receptor; format: cell-based
T1 construct: expressed in transfected cells
Procedure: The cells (14000 per well) were incubated (37° C., 5% CO2) overnight in 384-well plates. Next day the cells were loaded with a calcium responsive dye that only distributed into the cytoplasm. Probenecid, an inhibitor of the organic anion transporter, was added to prevent the dye from leaving the cell. A PDE inhibitor was added to prevent formatted cAMP from being degraded. […] End point data were collected after 6 minutes. An increase in intracellular cAMP was proportional to an increased in calcium concentrations in the cytoplasm. When calcium was bound the dry a fluorescence signal was generated. EC50-values were calculated in Prism5.

[2] = Assay (II) ThT fibrillation assay for physical stability; format: physicochemical; conditions: ThT fibrillation assay, pH 4.0, 250 μM, 10 mM glycylglycine, 45 hours at 37° C., shaking 960 rpm
Text: This has traditionally been measured by visual inspection of the sample. However, that kind of measurement is very subjective and depending on the observer. Therefore, the application of a small molecule indicator probe is much more advantageous.
Here, F is the ThT fluorescence at the time t. The constant t0 is the time needed to reach 50% of maximum fluorescence.
Few of those intermediates nucleate to form a template onto which further intermediates may assembly and the fibrillation proceeds. The lag-time corresponds to the interval in which the critical mass of nucleus is built up and the apparent rate constant is the rate with which the fibril itself is formed.
Samples were prepared freshly before each assay. […] The pH of the sample was adjusted to the desired value using appropriate amounts of concentrated NaOH and HCl. Thioflavin T was added to the samples from a stock solution in H2O to a final concentration of 1 μM.
The plate was sealed with Scotch Pad (Qiagen).
Each run was initiated by incubating the plate at the assay temperature for 10 min. The plate was measured every 20 minutes for a desired period of time. Between each measurement, the plate was shaken and heated as described.
The supernatant was filtered through a 0.22 μm filter and an aliquot was transferred to a HPLC vial.
The measurement points were saved in Microsoft Excel format for further processing and curve drawing and fitting was performed using GraphPad Prism.
The data set may be fitted to Eq. (1).

T1 sequence (P47871 26-477): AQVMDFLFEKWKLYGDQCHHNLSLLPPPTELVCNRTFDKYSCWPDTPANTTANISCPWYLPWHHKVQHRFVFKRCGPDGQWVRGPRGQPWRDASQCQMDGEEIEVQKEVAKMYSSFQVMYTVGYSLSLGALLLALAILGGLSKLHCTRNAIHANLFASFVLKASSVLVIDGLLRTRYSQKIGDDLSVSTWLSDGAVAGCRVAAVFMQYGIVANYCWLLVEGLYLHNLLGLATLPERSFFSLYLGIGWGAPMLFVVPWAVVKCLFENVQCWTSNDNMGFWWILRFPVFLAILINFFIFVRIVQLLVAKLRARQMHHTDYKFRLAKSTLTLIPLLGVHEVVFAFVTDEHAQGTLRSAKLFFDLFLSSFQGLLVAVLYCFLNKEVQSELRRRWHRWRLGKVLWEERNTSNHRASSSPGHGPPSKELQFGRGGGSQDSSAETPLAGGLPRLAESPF

CC(C)C[C@H](NC(=O)[C@H](Cc1ccc(O)cc1)NC(=O)[C@H](CCCCN)NC(=O)[C@H](CO)NC(=O)[C@H](Cc1ccc(O)cc1)NC(=O)[C@H](CC(=O)O)NC(=O)[C@H](CO)NC(=O)[C@@H](NC(=O)[C@H](Cc1ccccc1)NC(=O)[C@@H](NC(=O)CNC(=O)[C@H](CCC(N)=O)NC(=O)[C@H](CO)NC(=O)[C@@H](N)Cc1c[nH]cn1)[C@@H](C)O)[C@@H](C)O)C(=O)N[C@@H](CC(=O)O)C(=O)N[C@@H](CO)C(=O)N[C@@H](CCCNC(=N)N)C(=O)N[C@@H](CCCNC(=N)N)C(=O)N[C@@H](C)C(=O)N[C@@H](CCC(N)=O)C(=O)N[C@@H](CC(=O)O)C(=O)N[C@@H](Cc1ccccc1)C(=O)N[C@H](C(=O)N[C@@H](CCC(N)=O)C(=O)N[C@@H](CCCNC(=N)N)C(=O)N[C@@H](CC(C)C)C(=O)N[C@@H](CC(C)C)C(=O)N[C@@H](CCC(=O)O)C(=O)N[C@H](C(=O)O)[C@@H](C)O)C(C)C [Example 11, [Arg^25, Leu^27, Glu^28]-Glucagon]
EC50 [1]: 0.037 nM
Assay (II) (pH 4.0) Lag time (hours) [2]: > 45 hours
